According to patent US20070025997A1, “Use of biomolecular targets in the treatment and visualization of brain tumors” (priority 2002, published 2007):
Entries after “also recorded” stand apart in the source; their conditions may differ.

Key:
[1] = target: T1, DDR1 (Homo sapiens, UniProt Q08345); test: DDR1 activation in Glioma cells, anti-phosphotyrosine western blot; format: cell-based; parameters: DDR1 is phosphorylated as a 125 kD (full length) protein; settings: 60 minutes, 10 ug/ml (EGF 20 ng/ml)
Protocol: DDR1 activation in Glioma cells. DDR1 Glioma cells were stimulated with 10 ug/ml of Type1 collagen, 10 ug/ml Vitrogen, 10 ug/ml Fibronectin and 20 ng/ml EGF for 60 minutes. After stimulation, cells were lysed in RIPA buffer and resolved a 10% polyacrylamide gel (10%) gel. Lane 1, Nonstimulates, Lane 2, Type 1 Collagen (10 ug/ml, Lane 3 stimulated with Vitrogen (10 μg/ml), Lane 4 stimulated with human Fibronectin (10 μg/ml), Lane 5 stimulated with EGF 20 ng/ml) for 60 minutes. Cell lysates were analysed by anti-phosphotyrosine (4G10, Upstate Biotechnology) panel a, anti-DDR1 (C-20, Santa Cruz Biotechnology Inc.) panel b, and anti-DDR1 N-terminal H-126 (SCBT) panel c by western blotting. […] DDR1 is proteolytically cleaved in response to ligand stimulation. A 52 kD soluble protein was detected in the media with H-126, a N-terminal anti-DDR1 antibody (panel c).
Target sequence in this assay (Q08345 19-913): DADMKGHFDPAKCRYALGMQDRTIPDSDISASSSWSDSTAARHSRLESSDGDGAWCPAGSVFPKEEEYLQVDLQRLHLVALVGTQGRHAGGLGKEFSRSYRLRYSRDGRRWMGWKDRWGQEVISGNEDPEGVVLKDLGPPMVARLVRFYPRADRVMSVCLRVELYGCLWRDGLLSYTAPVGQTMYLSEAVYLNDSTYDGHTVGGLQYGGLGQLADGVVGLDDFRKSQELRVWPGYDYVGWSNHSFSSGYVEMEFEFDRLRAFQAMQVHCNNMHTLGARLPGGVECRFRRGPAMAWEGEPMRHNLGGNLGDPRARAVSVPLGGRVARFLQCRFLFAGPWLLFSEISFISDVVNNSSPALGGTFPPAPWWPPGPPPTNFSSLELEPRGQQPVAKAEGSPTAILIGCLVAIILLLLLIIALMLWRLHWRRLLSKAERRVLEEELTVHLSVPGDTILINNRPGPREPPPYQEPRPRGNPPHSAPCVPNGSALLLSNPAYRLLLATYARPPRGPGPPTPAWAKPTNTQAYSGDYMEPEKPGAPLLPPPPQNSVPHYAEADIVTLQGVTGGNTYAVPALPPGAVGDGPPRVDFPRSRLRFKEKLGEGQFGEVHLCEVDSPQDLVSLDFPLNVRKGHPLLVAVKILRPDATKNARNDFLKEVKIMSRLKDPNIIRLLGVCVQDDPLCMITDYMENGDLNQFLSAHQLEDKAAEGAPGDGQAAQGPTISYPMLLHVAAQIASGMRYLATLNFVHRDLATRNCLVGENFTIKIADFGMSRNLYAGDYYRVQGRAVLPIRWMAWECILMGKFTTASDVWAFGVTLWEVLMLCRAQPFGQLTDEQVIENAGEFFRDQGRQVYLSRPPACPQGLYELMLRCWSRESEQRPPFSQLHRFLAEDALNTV

[2] = tested on: MMP-2; test: Gelatin zymography of conditioned media (MMP-2 activation); format: cell-based, human
Protocol: Zymography: Serum-free media from G140 cell lines were stimulated with Collagen type I (10 μg/mL and collected after 24 hr. In some experiments, GM6001 (25 μM, 50 μM) was added to the media. The media was mixed with Tris-Gycine SDS Sample buffer (2×) and 20 μg of protein was subjected to 10% SDS-polyacrylamide gel electrophoresis (Invitrogen, Inc.) using 0.1% gelatin. After electrophoresis, gels were incubated in 2.5% Triton X-100 (Renaturing Buffer, Invitrogen, Inc.) for 30 minutes twice to remove SDS, and replaced with 50 mM Tris-Hcl, pH 7.5 containing 0.15 M NaCl, 10 mM CaCl2, and 0.02% NaN3 (Developing Buffer, Invitrogen, Inc.) overnight and then stained with Coomassie Blue R-250 for 30 minutes.

[3] = tested on: DDR1; test: Immunoprecipitation for DDR1 phosphorylation; format: cell-based, human; settings: G140 parental cells; 10 μg/ml soluble
Protocol: (§1) Immunoprecipitation for DDR1 phosphorylation: Rat tail collagen type 1 was purchased from Collaborative Biomedical Products (Bedford, Mass., USA). Cells were stimulated with 10 μg/ml soluble collagen type 1 for various periods of time. Cell lysates were prepared in RIPA buffer and immunoprecipitation was performed by incubating 1000 μg of cell extracts with DDR1 (C-20) antibody overnight at 4° C. Protein A beads (Santa Cruz Biotechnology: 50 μl) were added for 1 hr; the beads were washed three times with wash buffer and aliquots of the supernatant were subjected to SDS-PAGE. The blots were probed with monoclonal anti-phosphotyrosine antibody (4G10; Upstate Biotechnology Inc.) and visualized using the enhanced chemiluminescence (ECL) system (Amersham Pharmacia Biotech, Uppsala, Sweden). The blots were stripped and reprobed with a polyclonal antibody for DDR1 (C-20). Western Blot. The blots were probed with β-actin antibody to confirm equal loading.

[4] = tested on: MMP-1, MMP-2 and MMP-9; test: Gelatin zymography of media of DDR1 overexpressing glioma cells (Example 1); format: cell-based, human; settings: 20 ug/ml; 48 hrs; serum-free medium
Protocol: DDR1 overexpressing glioma cells reveal increased prescence of MMP-9, MMP-2 and MMP-1. Cells overexpressing DDR1a and DDR1b, DDR1 ex (extracellular domain construct) and Emmprin ex (extracellular domain construct), Ht1080 cells and human Fibroblasts, cells expressing empty vector were plated onto plates. After 24 hrs of plating, media was replaced with Serum-free medium with or without 20 ug/ml Type 1 Collagen and were incubated for 48 hrs at 37° C. Media from cells was collected and concentrated. 10 ug of media from each sample was resolved on a polyacrylamide gel (10%) containing 0.1% gelatin. Following electrophoresis, gels were washed twice with 5% Triton X-100 (30 min each). After washing, the gels were incubated for 24 h at 37° C. in the presence of 50 mM Tris-HCl, 5 mM CaCl2, 5 μM ZnCl2, pH 7.5, stained with Coomassie Brilliant Blue R-250 for 30 min and then destained. MMP-1, MMP-2 and MMP-9 production was induced by native type I collagen.

[5] = target: T1, DDR1; test: DDR1 internalization, Cellomics ArrayScan; format: cell-based; parameters: DDR1 is phosphorylated as a 125 kD (full length) protein; settings: human Glioma derived cells; soluble, 30 minutes
Protocol: Cells are rinsed once with HBSS and fixed with 3.7% neutral buffered formalin. The fixation solution is aspirated, and the plate washed with blocking buffer, and then incubated with permeabilization buffer for 10 minutes. The cells are then stained with fluorescence conjugated secondary antibody solution containing 10 ug/ml Hoechst 33342 (to stain nuclei) for 30 minutes at room temperature. Plates are washed twice, sealed, and stored in HBSS at 4 C. Images are acquired using the ArrayScan HCS system and internalized receptors quantitated using a proprietary algorithm. The algorithm measures the appearance and intensity of fluorescent receptor aggregates inside the cell. These measurements are represented as mean cytoplasmic intensity (amount of antibody-receptor complex inside the cell) and mean cytoplasmic texture (a measure of the endosome aggregates). Antibodies that trigger receptor internalization are further evaluated. Antibodies that bind to DDR1 on human glioma cells and become internalized are of particular interest. In some instances endocytosis serves as a surrogate marker for other therapeutic biologic effects, such as growth inhibition.
DDR1 internalization. Human Glioma derived were treated with soluble collagen I for 30 minutes and then stained for DDR1. The Cellomics ArrayScan fluorescent microscope instrument was used to identify and quantitate internalized DDR1 (FIG. 8).
Target sequence in this assay (Q08345 19-913): as above

[6] = target: T1, DDR1; test: Immunoprecipitation for DDR1 phosphorylation; format: cell-based; parameters: expressed in transfected cells; host or cells: G140 glioma cells stably transduced with a pLEN retroviral vector carrying DDR1a or DDR1b; settings: 10 μg/ml soluble
Protocol: as §1

[7] = tested on: G140-DDR1a cells; test: Invasion assay through Matrigel-coated Fluoroblok membranes; format: cell-based, human; settings: 25 μM
Protocol: (§2) Migration and Invasion Assays: Migration assays were performed using 24-well fluoroblok chambers (BD Biosciences, […] pore size). Cells overexpressing DDR1a, DDR1 b, vector alone (Mock) and parental cells were trypsinized and 1×10^6 cells were suspended in DMEM plus 1% serum. 100, 000 cells were placed in the upper chambers (Becton Dickenson-Fluoroblok plates-8 μm) in triplicate. DMEM with 5% serum was added to the lower chambers. After 4 hours, cells adhering to the underside of the membrane were stained with 4 μg/ml Calcein AM (Molecular Probes, Inc.) and fluorescence emitted by cells that have migrated through the chamber to the underside of the filter was measured at λs of 530/590 nm using a CytoFlor plate reader (Series 4000, Perspective Biosystems). For Invasion Assays: Rat tail Collagen type I (BD Biosciences, 10 μg/ml), human Collagen type IV (BD Biosciences, […]), human Fibronectin (BD Biosciences, 5 μg/ml) were used to coat the underside of the chambers and Fluoroblok plates previously coated with Matrigel (BD Biosciences, 24 wells) were used. […] The cells were allowed to invade through the matrices at 37° C. for 16 hrs and stained with Calcein AM and fluorescence emitted by cells was measured at Xs of 530/590 nm using a CytoFlor plate reader (Series 4000, Perspective Biosystems). […]

[8] = tested on: G140-DDR1a cells; test: Invasion assay through Collagen type 1 coated membranes; format: cell-based, human; settings: 25 μM
Protocol: as §2

[9] = tested on: glioma cells; test: Migration assay in Fluoroblok chambers; format: cell-based, human; settings: glioma cells overexpressing DDR1a
Protocol: as §2

Fibronectin: human Fibronectin, used to stimulate DDR1 Glioma cells
tyrosine phosphorylation of DDR1 [1]: phosphorylated; also recorded: resulted in tyrosine phosphorylation of DDR1

EGF: EGF 20 ng/ml, used to stimulate DDR1 Glioma cells
tyrosine phosphorylation of DDR1 [1]: phosphorylated; also recorded: resulted in tyrosine phosphorylation of DDR1

Collagen type 1: Rat tail collagen type 1, DDR1 ligand used to stimulate cells
conversion of intermediate (64 kDa) to active form of MMP-2 (62 kDa) ([2]; 10 μg/ml, G140-DDR1a overexpressing cells): increased conversion
MMP-2 activation ([2]; 10 μg/ml, G140 parental, G140-DDR1b and G140 mock cells): did not increase
time of peak autophosphorylation of endogenous DDR1 [3]: 60 min
MMP-1, MMP-2 and MMP-9 production [4]: induced
activation of pro-MMP-2 and Pro-MMP-1 [4]: Increased activation
tyrosine phosphorylation of DDR1 ([1]; listed as Type 1 Collagen): phosphorylated; also recorded: resulted in tyrosine phosphorylation of DDR1
DDR1 internalization (mean cytoplasmic intensity, cytoplasmic texture) [5]: induces DDR1 to appear in the cytoplasm
time of maximal DDR1a phosphorylation ([6]; G140-DDR1a cells): 60 min
time of peak phosphorylation of G140-DDR1b ([6]; G140-DDR1b cells): 90 min

CNC(=O)[C@H](Cc1c[nH]c2ccccc12)NC(=O)[C@@H](CC(=O)NO)CC(C)C [GM6001]
DDR1a mediated invasion through matrigel [7]: prevented
DDR1a mediated invasion through matrigel ([7]; listed as GM60001): inhibited
DDR1a mediated invasion through collagen type 1 [8]: prevented
DDR1a mediated invasion through collagen type 1 ([8]; listed as GM60001): inhibited
DDR1a stimulated activation / enzymatic activity of MMP-2 ([2]; 25 μm, G140-DDR1a cells, collagen 1 stimulation): effectively inhibited; also recorded: prevented
migration of glioma cells [9]: prevented
